In ChEMBL document CHEMBL5046309, “Discovery of SHR5133, a Highly Potent and Novel HBV Capsid Assembly Modulator” (ACS Med Chem Lett, 2022):
In brackets after ≈: the same amount, converted by molar mass. Blank lines part the entries; values can stand above or below the compound they belong to. Activity calls are given as the source filed them. No cut-off for these calls is given here.

How the values were obtained:
HepG2 2.2.15 = experiment: Cytotoxicity against human HepG2.2.15 cells assessed as reduction in cell viability incubated for 72 hrs by cell titer-glo assay; format: functional
Hepatitis B virus [1] = experiment: Antiviral activity against HBV infected in C57BL/6 mouse assessed as reduction on HBeAg level at 400 mg/kg,po BID for 28 days by ELISA; format: functional, organism-based; conditions: time 28.0 day
Hepatitis B virus [2] = experiment: Antiviral activity against HBV infected in C57BL/6 mouse assessed as reduction on HBsAg level at 400 mg/kg,po BID for 28 days by ELISA; format: functional, organism-based; conditions: time 28.0 day
[3] = Cmax in Sprague-Dawley rat at 2 mg/kg, po measured up to 24 hrs by LC-MS/MS analysis; format: ADME, organism-based; parameters: route oral, dose 2 mg/kg, time <=24; conditions: in vivo
[4] = AUC(0 to 24 hrs) in Sprague-Dawley rat at 2 mg/kg, po measured up to 24 hrs by LC-MS/MS analysis; format: ADME, organism-based; parameters: route oral, dose 2 mg/kg, time <=24; conditions: in vivo
[5] = Half life in Sprague-Dawley rat at 2 mg/kg, po measured up to 24 hrs by LC-MS/MS analysis; format: ADME, organism-based; conditions: in vivo
[6] = Clearance in Sprague-Dawley rat at 1 mg/kg, iv measured up to 24 hrs by LC-MS/MS analysis; format: ADME, organism-based; conditions: in vivo
[7] = AUC(0 to 24 hrs) in nude mouse at 2 mg/kg, po measured up to 24 hrs by LC-MS/MS analysis; format: ADME, organism-based; parameters: route oral, dose 2 mg/kg, time <=24; conditions: in vivo
[8] = Half life in nude mouse at 10 mg/kg, po measured up to 24 hrs by LC-MS/MS analysis; format: ADME, organism-based; conditions: in vivo
[9] = AUC(0 to 24 hrs) in nude mouse at 100 mg/kg, po measured up to 24 hrs by LC-MS/MS analysis; format: ADME, organism-based; parameters: route oral, dose 100 mg/kg, time <=24; conditions: in vivo
[10] = Microsomal stability in human liver microsome assessed as half life measured up to 24 hrs by LC-MS/MS analysis; format: ADME; conditions: liver microsomes
[11] = Microsomal stability in rat liver microsome assessed as half life measured up to 24 hrs by LC-MS/MS analysis; format: ADME; conditions: liver microsomes
[12] = Microsomal stability in dog liver microsome assessed as half life measured up to 24 hrs by LC-MS/MS analysis; format: ADME, Canis lupus familiaris; conditions: liver microsomes
[13] = Microsomal stability in mouse liver microsome assessed as half life measured up to 24 hrs by LC-MS/MS analysis; format: ADME; conditions: liver microsomes
[14] = Apparent permeability of the compound across apical to basolateral side in […] measured up to 24 hrs by LC-MS/MS analysis; format: ADME, cell-based
[15] = Apparent permeability of the compound across basolateral to apical side in […] measured up to 24 hrs by LC-MS/MS analysis; format: ADME, cell-based
[16] = Efflux ratio of apparent permeability across basolateral to apical side over apical to basolateral side in […] by LC-MS/MS analysis; format: ADME, cell-based
Cytochrome P450 1A2 = target: T1, Cytochrome P450 1A2 (Homo sapiens, UniProt P05177); experiment: Inhibition of recombinant human CYP1A2 by LC-MS/MS analysis; format: ADME
T1 sequence (P05177 whole entry): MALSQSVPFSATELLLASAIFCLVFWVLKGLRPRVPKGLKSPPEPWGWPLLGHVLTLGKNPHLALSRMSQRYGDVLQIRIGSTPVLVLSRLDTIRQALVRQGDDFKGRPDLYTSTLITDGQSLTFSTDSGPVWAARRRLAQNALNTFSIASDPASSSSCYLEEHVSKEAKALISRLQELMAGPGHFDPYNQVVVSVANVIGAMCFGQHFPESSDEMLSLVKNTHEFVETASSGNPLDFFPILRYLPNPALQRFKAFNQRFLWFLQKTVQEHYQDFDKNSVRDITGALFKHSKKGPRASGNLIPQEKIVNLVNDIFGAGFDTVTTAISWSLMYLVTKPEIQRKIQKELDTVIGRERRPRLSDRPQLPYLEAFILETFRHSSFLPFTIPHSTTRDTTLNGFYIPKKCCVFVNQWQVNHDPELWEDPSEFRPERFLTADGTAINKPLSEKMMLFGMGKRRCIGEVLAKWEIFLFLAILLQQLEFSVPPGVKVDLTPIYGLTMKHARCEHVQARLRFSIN

Cytochrome P450 2C9 = Cytochrome P450 2C9 (Homo sapiens, UniProt P11712); experiment: Inhibition of recombinant human CYP2C9 by LC-MS/MS analysis; format: ADME
Sequence of Cytochrome P450 2C9 (P11712 whole entry): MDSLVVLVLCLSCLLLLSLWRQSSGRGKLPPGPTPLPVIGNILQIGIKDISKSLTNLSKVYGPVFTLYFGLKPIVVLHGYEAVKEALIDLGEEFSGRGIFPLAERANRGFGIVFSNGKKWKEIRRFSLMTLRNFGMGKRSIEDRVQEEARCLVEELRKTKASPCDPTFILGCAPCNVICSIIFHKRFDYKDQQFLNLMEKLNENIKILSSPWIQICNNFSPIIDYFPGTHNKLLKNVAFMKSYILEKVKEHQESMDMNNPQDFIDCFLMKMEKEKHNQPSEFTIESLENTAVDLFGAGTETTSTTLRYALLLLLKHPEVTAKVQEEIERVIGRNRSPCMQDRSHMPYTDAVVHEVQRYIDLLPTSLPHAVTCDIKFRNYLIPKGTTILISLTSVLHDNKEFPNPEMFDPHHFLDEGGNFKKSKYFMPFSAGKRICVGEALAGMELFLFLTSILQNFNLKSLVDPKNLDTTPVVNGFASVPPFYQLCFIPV

Cytochrome P450 2D6 = Cytochrome P450 2D6 (Homo sapiens, UniProt P10635); experiment: Inhibition of recombinant human CYP2D6 by LC-MS/MS analysis; format: ADME
Sequence of Cytochrome P450 2D6 (P10635 whole entry): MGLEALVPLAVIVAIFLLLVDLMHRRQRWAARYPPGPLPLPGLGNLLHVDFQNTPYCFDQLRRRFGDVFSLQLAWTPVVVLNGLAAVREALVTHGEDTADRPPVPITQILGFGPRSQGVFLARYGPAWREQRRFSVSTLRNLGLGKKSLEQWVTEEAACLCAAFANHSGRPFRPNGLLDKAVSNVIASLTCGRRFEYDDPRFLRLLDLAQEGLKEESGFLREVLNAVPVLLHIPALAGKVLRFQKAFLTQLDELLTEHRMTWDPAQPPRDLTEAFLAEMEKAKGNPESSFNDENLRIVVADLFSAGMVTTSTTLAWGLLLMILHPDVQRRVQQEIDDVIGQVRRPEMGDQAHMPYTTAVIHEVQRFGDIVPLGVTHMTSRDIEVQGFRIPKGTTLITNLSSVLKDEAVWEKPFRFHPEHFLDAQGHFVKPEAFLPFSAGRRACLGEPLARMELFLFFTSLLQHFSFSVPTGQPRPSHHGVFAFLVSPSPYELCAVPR

[17] = Half life in nude mouse at 2 mg/kg, po measured up to 24 hrs by LC-MS/MS analysis; format: ADME, organism-based; conditions: in vivo
Cytochrome P450 3A4 [18] = target: T2, Cytochrome P450 3A4 (Homo sapiens, UniProt P08684); experiment: Inhibition of recombinant human CYP3A4 using midazolam as substrate by LC-MS/MS analysis; format: ADME
T2 sequence (P08684 whole entry): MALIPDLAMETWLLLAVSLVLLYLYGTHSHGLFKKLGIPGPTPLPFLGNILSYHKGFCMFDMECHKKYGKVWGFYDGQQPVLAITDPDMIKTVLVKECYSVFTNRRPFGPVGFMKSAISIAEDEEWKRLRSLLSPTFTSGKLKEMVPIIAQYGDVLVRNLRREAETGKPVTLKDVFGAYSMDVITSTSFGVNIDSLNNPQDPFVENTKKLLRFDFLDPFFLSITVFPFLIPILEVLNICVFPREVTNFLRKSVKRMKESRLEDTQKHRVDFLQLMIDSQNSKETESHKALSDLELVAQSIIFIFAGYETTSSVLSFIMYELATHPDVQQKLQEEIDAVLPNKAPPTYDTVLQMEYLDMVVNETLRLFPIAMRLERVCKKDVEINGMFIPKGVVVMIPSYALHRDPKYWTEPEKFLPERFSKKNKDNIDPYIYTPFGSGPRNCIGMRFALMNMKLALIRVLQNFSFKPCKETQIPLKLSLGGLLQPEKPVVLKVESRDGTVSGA

Cytochrome P450 2C19 = Cytochrome P450 2C19 (Homo sapiens, UniProt P33261); experiment: Inhibition of recombinant human CYP2C19 by LC-MS/MS analysis; format: ADME
Sequence of Cytochrome P450 2C19 (P33261 whole entry): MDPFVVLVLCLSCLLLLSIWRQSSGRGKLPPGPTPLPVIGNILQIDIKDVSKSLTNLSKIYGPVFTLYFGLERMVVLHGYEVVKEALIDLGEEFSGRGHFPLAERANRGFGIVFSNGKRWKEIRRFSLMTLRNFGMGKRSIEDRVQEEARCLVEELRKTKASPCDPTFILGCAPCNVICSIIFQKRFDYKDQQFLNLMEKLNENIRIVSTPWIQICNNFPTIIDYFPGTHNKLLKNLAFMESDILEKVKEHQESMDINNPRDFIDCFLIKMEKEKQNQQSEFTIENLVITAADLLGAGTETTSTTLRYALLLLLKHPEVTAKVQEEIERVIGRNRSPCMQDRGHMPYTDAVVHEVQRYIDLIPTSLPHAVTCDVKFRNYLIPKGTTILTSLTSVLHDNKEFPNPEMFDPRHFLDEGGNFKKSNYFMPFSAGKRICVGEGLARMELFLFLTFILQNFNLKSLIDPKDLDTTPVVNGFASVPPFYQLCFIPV

[19] = target: Voltage-gated inwardly rectifying potassium channel KCNH2 (Homo sapiens, UniProt Q12809); experiment: Inhibition of human ERG by LC-MS/MS analysis; format: toxicity
Sequence of Voltage-gated inwardly rectifying potassium channel KCNH2 (Q12809 whole entry): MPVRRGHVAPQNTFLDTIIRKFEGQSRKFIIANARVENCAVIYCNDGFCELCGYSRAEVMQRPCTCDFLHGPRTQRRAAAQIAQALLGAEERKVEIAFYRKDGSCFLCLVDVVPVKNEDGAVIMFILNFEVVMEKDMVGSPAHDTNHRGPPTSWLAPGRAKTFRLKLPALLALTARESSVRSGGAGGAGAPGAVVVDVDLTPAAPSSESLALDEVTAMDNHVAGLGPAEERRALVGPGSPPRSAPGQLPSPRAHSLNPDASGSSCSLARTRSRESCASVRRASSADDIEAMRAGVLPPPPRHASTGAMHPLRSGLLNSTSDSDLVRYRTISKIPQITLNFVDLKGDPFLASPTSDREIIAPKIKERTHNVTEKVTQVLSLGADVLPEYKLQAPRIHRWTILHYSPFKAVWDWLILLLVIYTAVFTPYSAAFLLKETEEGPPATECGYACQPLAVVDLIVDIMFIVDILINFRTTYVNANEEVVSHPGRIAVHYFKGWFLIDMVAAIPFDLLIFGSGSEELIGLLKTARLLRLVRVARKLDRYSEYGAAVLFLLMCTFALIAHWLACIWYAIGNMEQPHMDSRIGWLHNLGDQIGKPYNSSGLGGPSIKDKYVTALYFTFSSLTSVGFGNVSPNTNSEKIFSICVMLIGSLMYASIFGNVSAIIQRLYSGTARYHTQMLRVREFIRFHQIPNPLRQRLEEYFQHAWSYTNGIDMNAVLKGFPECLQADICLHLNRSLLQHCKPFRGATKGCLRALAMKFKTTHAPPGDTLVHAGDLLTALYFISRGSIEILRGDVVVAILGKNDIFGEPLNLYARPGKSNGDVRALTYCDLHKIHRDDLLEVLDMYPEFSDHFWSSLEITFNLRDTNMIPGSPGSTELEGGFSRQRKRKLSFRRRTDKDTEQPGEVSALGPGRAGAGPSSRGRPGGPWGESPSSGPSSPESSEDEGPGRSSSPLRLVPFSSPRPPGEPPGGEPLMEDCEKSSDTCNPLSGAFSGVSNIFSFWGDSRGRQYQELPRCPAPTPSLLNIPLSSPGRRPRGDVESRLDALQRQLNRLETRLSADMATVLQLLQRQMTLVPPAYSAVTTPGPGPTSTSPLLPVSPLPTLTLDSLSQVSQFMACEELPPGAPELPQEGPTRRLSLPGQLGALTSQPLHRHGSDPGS

[20] = Cmax in nude mouse at 2 mg/kg, po measured up to 24 hrs by LC-MS/MS analysis; format: ADME, organism-based; parameters: route oral, dose 2 mg/kg, time <=24; conditions: in vivo
[21] = Cmax in nude mouse at 10 mg/kg, po measured up to 24 hrs by LC-MS/MS analysis; format: ADME, organism-based; parameters: route oral, dose 10 mg/kg, time <=24; conditions: in vivo
[22] = AUC(0 to 24 hrs) in nude mouse at 10 mg/kg, po measured up to 24 hrs by LC-MS/MS analysis; format: ADME, organism-based; parameters: route oral, dose 10 mg/kg, time <=24; conditions: in vivo
[23] = Clearance in nude mouse at 1 mg/kg, iv measured up to 24 hrs by LC-MS/MS analysis; format: ADME, organism-based; conditions: in vivo
[24] = Cmax in nude mouse at 100 mg/kg, po measured up to 24 hrs by LC-MS/MS analysis; format: ADME, organism-based; parameters: route oral, dose 100 mg/kg, time <=24; conditions: in vivo
[25] = Half life in nude mouse at 100 mg/kg, po measured up to 24 hrs by LC-MS/MS analysis; format: ADME, organism-based; conditions: in vivo
[26] = Cmax in Beagle dog at 0.5 mg/kg, po measured up to 24 hrs by LC-MS/MS analysis; format: ADME, organism-based, Canis lupus familiaris; parameters: route oral, dose 0.5 mg/kg, time <=24; conditions: in vivo
[27] = AUC(0 to 24 hrs) in Beagle dog at 0.5 mg/kg, po measured up to 24 hrs by LC-MS/MS analysis; format: ADME, organism-based, Canis lupus familiaris; parameters: route oral, dose 0.5 mg/kg, time <=24; conditions: in vivo
[28] = Half life in Beagle dog at 0.5 mg/kg, po measured up to 24 hrs by LC-MS/MS analysis; format: ADME, organism-based, Canis lupus familiaris; conditions: in vivo
[29] = Clearance in Beagle dog at 1 mg/kg, iv measured up to 24 hrs by LC-MS/MS analysis; format: ADME, organism-based, Canis lupus familiaris; conditions: in vivo
Hepatitis B virus [30] = experiment: Antiviral activity against HBV infected in C57BL/6 mouse assessed as HBV DNA reduction at 3 to 30 mg/kg,po BID for 28 days by qPCR method; format: functional, organism-based; conditions: dose 3-30 mg/kg, time 28.0 day
Hepatitis B virus [31] = experiment: Antiviral activity against HBV infected in C57BL/6 mouse assessed as reduction on HBeAg level at 3 to 30 mg/kg,po BID for 28 days by ELISA; format: functional, organism-based; conditions: dose 3-30 mg/kg, time 28.0 day
Hepatitis B virus [32] = experiment: Antiviral activity against HBV infected in C57BL/6 mouse assessed as reduction on HBsAg level at 3 to 30 mg/kg,po BID for 28 days by ELISA; format: functional, organism-based; conditions: dose 3-30 mg/kg, time 28.0 day
[33] = Plasma protein binding in rat by LC-MS/MS analysis; format: ADME, cell-free; conditions: read-out: PPB (converted)
[34] = Lipophilicity, logD of compound at pH 7.4 by LC-MS/MS analysis; format: physicochemical; conditions: buffer
[35] = Plasma protein binding in dog by LC-MS/MS analysis; format: ADME, cell-free, Canis lupus familiaris; conditions: read-out: PPB (converted)
[36] = Plasma protein binding in human by LC-MS/MS analysis; format: ADME, cell-free; conditions: read-out: PPB (converted)
[37] = Plasma protein binding in mouse by LC-MS/MS analysis; format: ADME, cell-free; conditions: read-out: PPB (converted)
[38] = Solubility of the compound in phosphate buffer at pH 7.4 using amorphous form of sample by LC-MS/MS analysis; format: physicochemical
[39] = Solubility of the compound in FaSSIF using amorphous form of sample by LC-MS/MS analysis; format: physicochemical
Cytochrome P450 3A4 [40] = target: T2, Cytochrome P450 3A4; experiment: Inhibition of recombinant human CYP3A4 using testosterone as substrate by LC-MS/MS analysis; format: ADME

SMILES: C[C@H]1Cn2cnc(C(=O)N[C@H](C)C(F)(F)F)c2CN1C(=O)Nc1cc(F)nc(F)c1
CC50 (HepG2 2.2.15): > 100 µM

SMILES: C[C@H]1Cn2ncc(C(=O)N[C@H](C)C(F)(F)F)c2CN1C(=O)Nc1cc(F)nc(F)c1
CC50 (HepG2 2.2.15): > 100 µM

SMILES: C[C@H](NC(=O)c1ncn2c1CN(C(=O)Nc1ccc(F)c(C#N)c1)[C@@H](C)C2)C(F)(F)F
Activity (HepG2 2.2.15): inactive

SMILES: O=C(Nc1cc(F)c(F)c(F)c1)c1ccc(F)c(S(=O)(=O)N2CCC(O)CC2)c1
Activity (Hepatitis B virus [1]): inactive
Activity (Hepatitis B virus [2]): inactive

Cmax [3]: 492 ng/mL
AUC [4]: 2.12 µg/mL/h
half-life [5]: 232 min
clearance [6]: 26.6 mL/min/kg
SMILES: Cc1cc(NC(=O)N2Cc3c(C(=O)N[C@H](C)C(F)(F)F)ncn3C[C@@H]2C)ccc1F
CC50 (HepG2 2.2.15): > 100 µM

SMILES: C[C@H]1Cn2cnc(C(=O)N[C@H](C)C(F)(F)F)c2CN1C(=O)Nc1ccc(F)c(F)c1
CC50 (HepG2 2.2.15): 60.9 µM

AUC [7]: 7.16 µg/mL/h
half-life [8]: 203 min
AUC [9]: 28.9 µg/mL/h
Cmax [3]: 597 ng/mL
AUC [4]: 7.98 µg/mL/h
clearance [6]: 4.5 mL/min/kg
half-life [10]: > 139 min
half-life [11]: > 67 min
half-life [12]: > 139 min
half-life [13]: > 120 min
Papp A→B at 24 h [14]: 10.9 ×10⁻⁶ cm/s
Papp B→A at 24 h [15]: 51.4 ×10⁻⁶ cm/s
efflux ratio [16]: 4.73
IC50 (Cytochrome P450 1A2): > 30 µM
IC50 (Cytochrome P450 2C9): > 30 µM
IC50 (Cytochrome P450 2D6): > 30 µM
half-life [17]: 302 min
IC50 (Cytochrome P450 3A4 [18]): > 30 µM
IC50 (Cytochrome P450 2C19): > 30 µM
Cmax [20]: 1120 ng/mL
Cmax [21]: 4600 ng/mL
AUC [22]: 24.4 µg/mL/h
clearance [23]: 5.3 mL/min/kg
Cmax [24]: 22200 ng/mL
half-life [25]: 298 min
Cmax [26]: 559 ng/mL
AUC [27]: 9.01 µg/mL/h
half-life [28]: 1850 min
clearance [29]: 1.1 mL/min/kg
fraction unbound [33]: 0.244
logD [34]: 2.27
fraction unbound [35]: 0.23
fraction unbound [36]: 0.113
fraction unbound [37]: 0.12
solubility [38]: 106 µM (≈ 46.5 µg/mL)
solubility [39]: 1640 µM (≈ 718 µg/mL)
IC50 (Cytochrome P450 3A4 [40]): > 30 µM
SMILES: C[C@H]1Cn2cnc(C(=O)N[C@H](C)C(F)(F)F)c2CN1C(=O)Nc1ccc(F)c(C#N)c1
CC50 (HepG2 2.2.15): > 100 µM
IC50 [19]: > 30 µM
Activity (Hepatitis B virus [30]): Dose-Dependent Effect
Activity (Hepatitis B virus [31]): inactive
Activity (Hepatitis B virus [32]): inactive
